Literature values as cited in patent US20020006953A1, “MODIFICATION OF CHOLESTEROL CONCENTRATIONS WITH CITUS PHYTOCHEMICALS” (priority 1999, published 2002).

Legend:
[1] = 10% hesperidin diet

Row | Structure (SMILES) | net secretion of apo B (HepG2 cells) | plasma concentration of triacylglycerols [1] | activity of lipase (lipase)
1 | COc1ccc([C@@H]2CC(=O)c3c(O)cc(O)cc3O2)cc1O [hesperetin] | reduced |  | 
2 | COc1ccc([C@@H]2CC(=O)c3c(O)cc(O[C@@H]4O[C@H](CO[C@@H]5O[C@@H](C)[C@H](O)[C@@H](O)[C@H]5O)[C@@H](O)[C@H](O)[C@H]4O)cc3O2)cc1O [hesperidin] |  | significantly reduced | inhibit
3 | O=C1C[C@@H](c2ccc(O)cc2)Oc2cc(O)cc(O)c21 [naringinin] | reduced |  | 
